Consider one compound from publication PMC13183915, “A platinum butterfly effect: small changes turn an anticancer drug into a non-toxic metalloantibiotic with in vivo efficacy” (npj Antimicrobials and Resistance, 2026).

SMILES strings stand for the structures. “And” between values parts separate entries of the source, which are not always exact repeats. Identical values can stand only once.

For one assay, the system named is MRSA NRS 186. Briefly: Broth microdilution MIC, MRSA NRS 186. It counts as cell-based, S. aureus. The following applies: MRSA NRS 186. As to the method: (§1) The data is given in supporting information (Table S5). Before starting the experiment, a single colony was picked from MHA plate, inoculated in MHBII and incubated overnight at 37 °C with shaking for 18–24 h to get the starter culture. Antibiotic susceptibility testing was conducted according to the CLSI (Clinical & Laboratory Standards Institute) guidelines using the broth microdilution assay. 10 mg/mL stock solutions of test compounds were prepared in DMSO. Bacterial cultures were inoculated in MHBII and optical density (OD) was measured at 600 nm, followed by dilution to achieve ~10^6 CFU/mL. The compounds were tested from 64 to 0.5 mg/L in two-fold serial diluted fashion with 2.5 μL of each concentration added to well of a 96-well round bottom microtiter plate. Later, 97.5 μL of bacterial suspension was added to each well containing either test compound or appropriate controls. […] The MIC is defined as the lowest concentration of the compound at which there is absence of visible growth. For each test compound, MIC determinations were carried out independently three times using duplicate samples.

Another assay relates to MRSA NRS 192. Briefly: Broth microdilution MIC, MRSA NRS 192. It counts as cell-based, S. aureus. As to conditions: MRSA NRS 192. As to the method:
as §1

Another assay deals with VRSA VRS 1. Briefly: Broth microdilution MIC, VRSA VRS 1. Format: cell-based, S. aureus. The following applies: VRSA VRS 1. As to the method: as §1
For a further assay, the system named is B. subtilis 168CA. As to the kind of experiment: Propidium iodide pore assay. As to conditions: 3.125 µM Pt1, 25 µM Pt8; 30 and 60 min. Format: cell-based, Bacillus subtilis. As to the method: Propidium iodide staining was performed as described previously. B. subtilis 168CA was grown to an OD600 of 0.3 prior to splitting of the parent culture and treatment with the different antibiotics. After 15 and 45 min, samples were stained with 13.3 µg/mL propidium iodide for 15 min (total treatment times 30 and 60 min), and washed 3 times with phosphate-buffered saline (PBS). Fluorescence signals were recorded at an excitation wavelength of 535–15 nm and an emission wavelength of 617–20 nm in a BMG Clariostar Plus plate reader.

For assay [1], the system named is GFP-MinD expression (B. subtilis TB35). As to the kind of experiment: Translation inhibition assay (inducible GFP-MinD expression). As to conditions: 3.125 µM Pt1, 25 µM Pt8; 60 min. It counts as cell-based, Bacillus subtilis. As to the method: B. subtilis strain TB35 (Pxyl-minD-gfp) was grown in LB without inducer. After reaching an OD600 of 0.3, antibiotics and inducer (0.1% xylose) were added consecutively. Samples were withdrawn for microscopy after 60 min of treatment, spotted on glass slides covered with 1% agarose films, and imaged without delay.
Figure S11: MinD translation induction assay. TB35 (Pxyl-minD-gfp) was grown without xylose, thus not expressing GFP -MinD. […]
chloramphenicol (CHL). Images were taken after 60 min of induction/treatment. Scale bar 2 […]
(1 picture or pasted object on this page, not shown here)

Turning to `C1=C\CC/C=C\CC/1.[Cl][Pt][Cl]` [Pt1], the MIC was 0.125 – 0.25 µg/mL and 0.33–0.67 µM with MRSA NRS 186; 0.125 – 0.25 µg/mL and 0.33–0.67 µM against MRSA NRS 192; 0.67 to 1.34 µM against VRSA VRS 1. Also, the “propidium iodide (PI) uptake” value in the assay on B. subtilis 168CA is on record as “Neither Pt1 nor Pt8 showed increased PI uptake”. Besides, the “GFP-MinD expression after xylose induction” value in assay [1] is “No differences in GFP-MinD expression were observed”.
